Like-named read-outs stand apart in the source and are kept apart here. Where no end group is shown, it is not given here.
Tests used:
[1] = tested on: HepG2 cells; assay type: cell-based, human; conditions: for Activity on HepG2 cells (in words): HepG2, discussion statement; for IC50 (cell viability): 24 h
Description: HepG2 human hepatic cancer cells (taken from laboratory stocks) were routinely grown in high glucose–DMEM medium with the addition of 10% fetal calf serum (Life Technologies, Carlsbad, CA, USA) and antibiotics (100 U/mL penicillin and 100 μg/mL streptomycin; Life Technologies), at 37 °C in a 5% CO2 atmosphere.
For IC50 determination, cells undergoing exponential growth were seeded at a concentration of 5500/well in 96-well plates, allowed to adhere overnight, and then grown in control conditions or exposed to different concentrations of natural and synthetic peptides for 24 h. The number of viable cells was determined through the trypan blue exclusion test. The cell viability ratio in each experimental condition was determined as the ratio between unstained treated cells and controls, and the half maximal inhibitory concentrations (IC50) for peptides #7, #3d, and #7d were evaluated using the CompuSyn software.

[2] = tested on: P. aeruginosa ATCC 15442; assay type: cell-based, Pseudomonas aeruginosa
Source text: (§1) Four bacterial strains and one fungal strain were employed in this study: S. aureus ATCC 25923, P. aeruginosa ATCC 15442, E. coli ATCC 25922, E. faecalis ATCC 29212, and C. albicans ATCC 10231. The media used for microbiological assays were Tryptic Soy Broth (TSB, Sigma-Aldrich, Merck-Life Sciences S.r.l., Milan, Italy), Tryptic Soy Agar (TSA), Mueller Hinton II (Sigma-Aldrich, Merck-Life Sciences S.r.l., Milan, Italy), and Sabouraud medium for the yeast strain.
(§2) Polypeptide-enriched extracts derived from green leaves and rhizomes of P. oceanica were lyophilized and resuspended in ultrapure water in order to obtain protein concentrations of 30 μg/mL and 26 μg/mL, respectively. The MIC values of the extracts were assessed through a previously described micro-method based on serial dilution (1:2) of the extracts, using Mueller Hinton II (MH II) and Sabouraud (for C. albicans) media in 96-well microplates and starting from 50% v/v to 1.5% v/v for a final volume equal to 100 μL. A microbial suspension of 10 μL (5 × 10^6 CFU/mL) derived from a bacterial culture grown at 37 °C for 24 h on Tryptic Soy Agar (TSA) in 5 mL of NaCl 0.9%, whose turbidity was similar to the 0.5 McFarland standard, was added to a 96-well plate followed by incubation at 37 °C for 24 h. […] In addition, a positive growth control (broth with bacterial inoculum to compare the growth of the cells with samples) and a sample control (extract solution without bacterial inoculum to verify the absorbance of the samples at various tested concentrations) were also included.
(§3) The same procedure and media were also used to evaluate the antimicrobial activity of synthetic peptides #2, #3, #5, and #7, as well as of their derivatives. In particular, the synthetic peptides and their derivatives were dissolved in ultrapure water with the goal of achieving a stock solution of 5 mg/mL. Work solutions of 250 μg/mL of each synthetic peptides and derivatives were prepared in MH II and Sabouraud, being tested in 96-well microplates after serial dilution (1:2). Each assay was performed in triplicate.

[3] = tested on: E. coli ATCC 25922; assay type: cell-based, Escherichia coli
Source text: as §1, §2, §3

[4] = tested on: S. aureus ATCC 25923; assay type: cell-based, Staphylococcus aureus
Source text: as §1, §2, §3

[5] = tested on: C. albicans ATCC 10231; assay type: cell-based, Candida albicans
Source text: as §1, §2, §3

[6] = tested on: E. faecalis ATCC 29212; assay type: cell-based, Enterococcus faecalis
Source text: as §1, §2, §3

[7] = tested on: P. aeruginosa ATCC 15442; assay type: cell-based, Pseudomonas aeruginosa; conditions: crystal violet
Description: Sub-MIC concentrations of natural extracts and synthetic peptides were tested to evaluate their interference with the growth as a sessile community of S. aureus ATCC 25923, P. aeruginosa ATCC 15442 and C. albicans ATCC 10231, as previously reported. Bacterial strains or fungal strains were incubated in test tubes containing TSB or Sabouraud (5 mL) and 2% v/v glucose at 37 °C for 24 h. Then, a 2.5 μL microbial suspension was added to each well, containing 200 μL of TSB or Sabouraud broth with 2% w/v glucose.. Aliquots of sub-MIC concentrations of natural extracts of P. oceanica or of chemically synthesized peptides were directly added to the wells, and the plates were incubated at 37 °C for 24 h. After biofilm formation, the wells were washed twice with sterile NaCl 0.9% and stained with 200 μL of 0.1% v/v crystal violet solution for 30 min at 37 °C [70]. Excess solution was discharged, and the plates were washed twice using tap water. Lastly, each stained well was processed by adding 200 μL of ethanol to solubilize the dye. The OD was read at a wavelength of 600 nm using a microplate reader (Glomax®-Multi Detection System, Promega s.r.l., Milan, Italy). […] The percentage of biofilm inhibition formation was determined through the following formula: % Inhibition = [(OD growth − OD sample)/OD growth control] × 100. […]

[8] = chemically synthesized peptide, maximum tested concentration 250 μg/mL, Mueller Hinton II, triplicate

| Sequence | MIC ([2]; ATCC 15442, 24 h) [µg/mL] | MIC ([3]; ATCC 25922, 24 h) [µg/mL] | IC50 (cell viability) [1] [µg/mL] | MIC ([4]; ATCC 25923, 24 h) [µg/mL] | MIC ([5]; ATCC 10231, 24 h) [µg/mL] | MIC ([6]; ATCC 29212, 24 h) [µg/mL] | other results |
| --- | --- | --- | --- | --- | --- | --- | --- |
| EETFHGVL [Peptide #2, natural peptide EETFHGVL from green leaves extract, chemically synthesized] | – | – | – | – | – | – | Activity on HepG2 cells (in words) [1]: lack of activity |
| GEFALCKATK [Peptide #7d] | > 250 | > 250 | 0.108 | > 250 | > 250 | > 250 | – |
| GEFALCSAKT [Peptide #7] | – | – | 0.329 | – | – | – | – |
| IVAKVGSA [5d] | – | – | – | – | – | – | MIC [2, 8]: > 250 µg/mL; MIC [3, 8]: > 250 µg/mL; MIC [4, 8]: > 250 µg/mL; MIC ([5]; chemically synthesized peptide, maximum tested concentration 250 μg/mL, Sabouraud, triplicate): > 250 µg/mL; Percentage of inhibition of biofilm formation ([7]; maximum tested concentration 200 μg/mL): 57.2%; BIC50 ([7]; peptide, AAT Bioquest IC50 calculator): 70.7 µg/mL; MIC [6, 8]: > 250 µg/mL |
| IVASVGSA [Peptide #5, natural peptide IVASVGSA from rhizome extract, chemically synthesized] | – | – | – | – | – | – | Activity on HepG2 cells (in words) [1]: inability of peptide #5 to exert any biological role |
| RKTFWGVL [Peptide #2d] | > 250 | > 250 | – | > 250 | > 250 | > 250 | – |
| WVVRLNAPGKK [Peptide #3d] | > 250 | > 250 | 0.41 | > 250 | > 250 | > 250 | – |
